Values joined by “and” are separate entries in the source; they are usually repeats but may differ in a detail not shown here. Equal entries are not always repeated.
Assays:
[1] = target: NAALADase (Homo sapiens, UniProt Q04609); assay: In vitro inhibition of NAALADase activity; format: biochemical
[2] = Passive avoidance anxiolytic model (shuttlebox, latency to cross); format: in vivo; conditions: for Latency to Cross, Mean / Latency to Cross, individual animals: Table II
Description: The passive avoidance test consists of an acquisition and a retention trial. On the day prior to dosing, the animal is placed into the shuttlebox and allowed to acclimate. A conditioned stimulus (light) is presented for approximately 100 seconds. When the animal crosses to the dark compartment, a mild (0.5 mA) footshock is presented until the animal returns to the lighted compartment or for approximately 10 seconds. Animals failing to cross during acquisition trial is randomly replaced. The day following acquisition, animals are administered test article, saline or flurazepam 10 minutes prior to being placed in the shuttlebox and tested for retention as described above. Latency to cross (in seconds) is recorded.

Sequence of NAALADase (Q04609 whole entry): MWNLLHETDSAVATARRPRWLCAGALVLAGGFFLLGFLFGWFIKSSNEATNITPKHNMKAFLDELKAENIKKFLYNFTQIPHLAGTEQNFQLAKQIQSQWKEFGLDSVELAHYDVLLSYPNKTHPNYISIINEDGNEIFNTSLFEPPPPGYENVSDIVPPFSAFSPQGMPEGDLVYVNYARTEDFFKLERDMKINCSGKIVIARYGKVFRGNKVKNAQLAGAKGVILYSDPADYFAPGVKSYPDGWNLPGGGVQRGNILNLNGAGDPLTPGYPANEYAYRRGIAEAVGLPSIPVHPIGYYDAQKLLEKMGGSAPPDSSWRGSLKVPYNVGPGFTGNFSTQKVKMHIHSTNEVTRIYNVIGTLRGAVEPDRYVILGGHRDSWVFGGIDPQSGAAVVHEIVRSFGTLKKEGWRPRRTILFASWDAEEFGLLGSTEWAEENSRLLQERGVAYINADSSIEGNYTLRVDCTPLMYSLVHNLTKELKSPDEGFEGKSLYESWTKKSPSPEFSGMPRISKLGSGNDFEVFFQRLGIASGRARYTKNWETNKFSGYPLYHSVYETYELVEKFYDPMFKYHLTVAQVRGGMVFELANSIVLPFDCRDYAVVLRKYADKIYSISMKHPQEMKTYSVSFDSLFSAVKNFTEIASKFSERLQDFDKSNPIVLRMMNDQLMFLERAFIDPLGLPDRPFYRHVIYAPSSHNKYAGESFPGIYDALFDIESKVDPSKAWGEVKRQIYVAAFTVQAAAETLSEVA

Q: For `O=C(O)CCC(CCS)C(=O)O` (stereo not drawn) [Compound 1, 2-(2-sulfanylethyl)pentanedioic acid], which Ki [1] is on record?
A: Its Ki is 510 nM.

Q: What about the “anxiolytic properties in passive avoidance” value ([2]; Example 14) of the same compound?
A: The value was “exhibit anxiolytic properties”.

Q: What about the “performance compared with flurazepam in passive avoidance” value ([2]; Example 14, in some experiments) of the same compound?
A: The value was “performed better than the known anxiolytic agent, flurazepam”.

Q: And the “Latency to Cross, Mean” value ([2]; Compound 1 1 mg/kg PO)?
A: The value was 34.8 s.

Q: What about the “Latency to Cross, individual animals” value ([2]; Compound 1 1 mg/kg PO, 1 mg/kg) of the same compound?
A: The value was 5.9 seconds and 15.8 seconds and 28.4 seconds and 30.3 seconds and 100.0 seconds (3×) and 12.3 seconds and 27.9 seconds and 23.5 seconds and 3.9 seconds and 13.1 seconds and 0.2 seconds and 41.3 seconds and 20.1 seconds.

Q: And the “Latency to Cross, Mean” value ([2]; Compound 1 10 mg/kg PO)?
A: Its value is 23.6 s.

Q: What about the “Latency to Cross, individual animals” value ([2]; Compound 1 10 mg/kg PO, 10 mg/kg) of the same compound?
A: Its value is 1.8 s and 28.5 s and 64.1 s and 3.2 s and 14.7 s and 10.3 s and 3.3 s and 24.6 s and 9.4 s and 100.0 s and 22.7 s and 6.6 s and 14.0 s and 38.8 s and 12.1 s.

Q: What about the “Latency to Cross, Mean” value ([2]; Compound 1 100 mg/kg PO) of the same compound?
A: Its value is 18.0 s.

Q: What about the “Latency to Cross, individual animals” value ([2]; Compound 1 100 mg/kg PO, 100 mg/kg) of the same compound?
A: The value was 15.0 s and 19.2 s and 5.6 s and 19.3 s and 6.2 s and 55.7 s and 25.5 s and 21.5 s and 6.6 s and 15.1 s and 8.4 s and 17.4 s and 0.5 s and 0.7 s and 52.8 s.
